Assay results from patent US20240376099A1, “COMPOUNDS AND COMPOSITIONS AS INHIBITORS OF ENDOSOMAL TOLL-LIKE RECEPTORS” (Novartis AG, priority 2016, published 2024).

target: T1, TLR8 (Homo sapiens, UniProt Q9NR97); test: huPBMC TLR8 Antagonist IL-6 TR-FRET Assay; format: cell-based; parameters: Fresh blood was collected from normal human donors; endogenous in cells; host or cells: human PBMCs from fresh donor blood; conditions: human PBMCs stimulated with ssRNA40 1 μg/ml (DOTAP), 14-16 hrs; IL-6 TR-FRET read-out
T1 sequence (Q9NR97 27-1041): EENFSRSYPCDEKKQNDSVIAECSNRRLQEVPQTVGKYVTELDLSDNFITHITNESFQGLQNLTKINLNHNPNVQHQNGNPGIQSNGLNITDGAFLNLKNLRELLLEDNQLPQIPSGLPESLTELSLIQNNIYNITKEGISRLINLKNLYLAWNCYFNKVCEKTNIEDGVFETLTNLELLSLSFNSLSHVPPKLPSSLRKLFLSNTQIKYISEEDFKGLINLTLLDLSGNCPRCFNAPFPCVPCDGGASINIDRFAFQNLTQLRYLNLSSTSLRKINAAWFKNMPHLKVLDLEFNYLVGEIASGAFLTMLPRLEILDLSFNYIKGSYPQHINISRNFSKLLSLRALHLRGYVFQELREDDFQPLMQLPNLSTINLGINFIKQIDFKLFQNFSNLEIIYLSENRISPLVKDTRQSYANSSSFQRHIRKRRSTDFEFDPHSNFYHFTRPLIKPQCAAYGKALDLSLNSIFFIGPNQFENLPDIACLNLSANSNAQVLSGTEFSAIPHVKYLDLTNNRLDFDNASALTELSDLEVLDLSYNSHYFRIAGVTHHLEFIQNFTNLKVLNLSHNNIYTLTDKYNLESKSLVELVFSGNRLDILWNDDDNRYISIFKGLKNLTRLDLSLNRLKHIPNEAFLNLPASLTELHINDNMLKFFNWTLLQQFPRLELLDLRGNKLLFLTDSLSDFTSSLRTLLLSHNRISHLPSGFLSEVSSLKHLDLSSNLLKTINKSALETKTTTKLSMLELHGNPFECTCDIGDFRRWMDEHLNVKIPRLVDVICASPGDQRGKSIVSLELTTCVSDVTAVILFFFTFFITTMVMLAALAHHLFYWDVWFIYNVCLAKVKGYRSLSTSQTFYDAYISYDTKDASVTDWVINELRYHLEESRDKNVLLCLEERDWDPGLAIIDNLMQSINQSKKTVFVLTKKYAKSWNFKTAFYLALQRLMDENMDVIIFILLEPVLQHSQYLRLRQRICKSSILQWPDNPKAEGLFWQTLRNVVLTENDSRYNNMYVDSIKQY
Procedure, shortened: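 Human PBMCs from fresh donor blood (150,000 cells/well) stimulated 14–16 h at 37 °C with DOTAP-complexed ssRNA40 (final 1 μg/ml for TLR8, 10 μg/mL for TLR7) or ODN2216 (final 0.3 μM, TLR9), 0.25% DMSO, ten-point 1/3 compound dilutions. Supernatant IL-6 read by HTRF (TLR8); IFNα by IFNα2b AlphaLISA (TLR7/TLR9).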

IC50 [nM]	Compound
48	Cc1cc(N2CCc3c(c(C)nn3CC34CCC(N5CCCC5)(CC3)CC4)C2)c2ccncc2n1 [compound 86, 2-methyl-4-(3-methyl-1-((4-(pyrrolidin-1-yl)bicyclo[2.2.2]octan-1-yl)methyl)-6,7-dihydro-1H-pyrazolo[4,3-c]pyridin-5(4H)-yl)-1,7-naphthyridine]
377	Cc1cc(N2CCc3c(c(C)nn3CCC34CCC(N)(CC3)CC4)C2)c2cnn(C)c2n1 [compound 91, 4-(2-(5-(1,6-dimethyl-1H-pyrazolo[3,4-b]pyridin-4-yl)-3-methyl-4,5,6,7-tetrahydro-1H-pyrazolo[4,3-c]pyridin-1-yl)ethyl)bicyclo[2.2.2]octan-1-amine]
40	Cc1cc(N2CCc3c(c(C)nn3CC34CCC(N)(CC3)CC4)C2)c2ccnc(C)c2n1 [compound 92, 4-((5-(2,8-dimethyl-1,7-naphthyridin-4-yl)-3-methyl-4,5,6,7-tetrahydro-1H-pyrazolo[4,3-c]pyridin-1-yl)methyl)bicyclo[2.2.2]octan-1-amine]

Continued, molecule first:

Compound	IC50 [nM]
Cc1cc(N2CCc3c(c(C)nn3CC34CCC(N5CC[C@H](O)C5)(CC3)CC4)C2)c2cnn(C)c2n1 [compound 75, (S)-1-(4-((5-(1,6-dimethyl-1H-pyrazolo[3,4-b]pyridin-4-yl)-3-methyl-4,5,6,7-tetrahydro-1H-pyrazolo[4,3-c]pyridin-1-yl)methyl)bicyclo[2.2.2]octan-1-yl)pyrrolidin-3-ol]	134
Cc1cc(N2CCc3c(c(C)nn3CC34CCC(N(C)C5CCC5)(CC3)CC4)C2)c2cnn(C)c2n1 [compound 79, N-cyclobutyl-4-((5-(1,6-dimethyl-1H-pyrazolo[3,4-b]pyridin-4-yl)-3-methyl-4,5,6,7-tetrahydro-1H-pyrazolo[4,3-c]pyridin-1-yl)methyl)-N-methylbicyclo[2.2.2]octan-1-amine]	136
Cc1cc(N2CCc3c(c(C)nn3CC34CCC(N5C[C@H](O)[C@@H](O)C5)(CC3)CC4)C2)c2cnn(C)c2n1 [compound 80, (3S,4S)-1-(4-((5-(1,6-dimethyl-1H-pyrazolo[3,4-b]pyridin-4-yl)-3-methyl-4,5,6,7-tetrahydro-1H-pyrazolo[4,3-c]pyridin-1-yl)methyl)bicyclo[2.2.2]octan-1-yl)pyrrolidine-3,4-diol]	466
Cc1nn(CC23CCC(N4CCCC4)(CC2)CC3)c2c1CN(c1ccnc(-c3ccccc3)c1)CC2 [compound 85, 3-methyl-5-(2-phenylpyridin-4-yl)-1-((4-(pyrrolidin-1-yl)bicyclo[2.2.2]octan-1-yl)methyl)-4,5,6,7-tetrahydro-1H-pyrazolo[4,3-c]pyridine]	224
